IC50 data for 26 molecules are collected here from patent publication US20240228535A1 (priority 2022, published 2024).

The assay concerns the target SARS2 coronavirus 3CL protease (Severe acute respiratory syndrome coronavirus 2, UniProt P0DTD1). The assay is described as follows: biochemical. To be noted: 5 nM enzyme, 30 min pre-incubation with compound, 15 μM peptide substrate, 4 h at room temperature; read-out: FRET Potency (nM); IC50 values in the SARS2 3CLPro FRET assay.
`CNC(=O)C(=O)[C@H](C[C@@H]1C[C@@H](C)NC1=O)NC(=O)c1cc(Cl)ccc1NC(=O)OCC1CCCC(F)(F)C1` (stereo partly drawn) [Example 219, (3,3-difluorocyclohexyl)methyl N-[4-chloro-2-[[(1S)-3-(methylamino)-1-[(3S,5R)-5-methyl-2-oxo-pyrrolidin-3-yl]methyl]-2,3-dioxo-propyl]carbamoyl]phenyl] carbamate]: the IC50 is 7.1 nM.

On to `CCOC(=O)Nc1ccc(Cl)cc1C(=O)N[C@@H](C[C@@H]1CCNC1=O)C(=O)C(=O)NC` [Example 111, ethyl N-[4-chloro-2-[[(1S)-3-(methylamino)-2,3-dioxo-1-[[(3S)-2-oxopyrrolidin-3-yl]methyl]propyl]carbamoyl]phenyl]carbamate], for which the IC50 stood at 5.8 nM.

Take `CNC(=O)C(=O)[C@H](C[C@@H]1C[C@@H](C)NC1=O)NC(=O)c1cc(F)ccc1NC(=O)OC` [Example 104, methyl N-[4-fluoro-2-[(1S)-3-(methylamino)-1-[[(3S,5R)-5-methyl-2-oxo-pyrrolidin-3-yl]methyl]-2,3-dioxo-propyl]carbamoyl]phenyl] carbamate]: the IC50 is 15.3 nM.

Consider `CNC(=O)C(=O)[C@H](C[C@@H]1CCNC1=O)NC(=O)c1cc(Cl)ccc1NC(=O)OC1CCC1` [Example 137, cyclobutyl N-[4-chloro-2-[[(1S)-3-(methylamino)-2,3-dioxo-1-[[(3S)-2-oxopyrrolidin-3-yl]methyl]propyl]carbamoyl]phenyl]carbamate], for which the IC50 amounted to 5.4 nM.

As to `C[C@@H]1C[C@@H](C[C@H](NC(=O)c2cc(F)c(F)cc2NC(=O)c2cncc(C(F)(F)F)c2)C(=O)C(=O)NC2CC2)C(=O)N1` [Example 99, N-[2-[[(1S)-3-(cyclopropylamino)-1-[[(3S,5R)-5-methyl-2-oxo-pyrrolidin-3-yl]methyl]-2,3-dioxo-propyl]carbamoyl]-4,5-difluoro-phenyl]-5-(trifluoromethyl)pyridine-3-carboxamide], the IC50 was found to be 13 nM.

`CNC(=O)C(=O)[C@H](C[C@@H]1C[C@@H](C)NC1=O)NC(=O)c1cc(Cl)cnc1NC(=O)C12CC(F)(C1)C2` [Example 50, 5-chloro-2-[(3-fluorobicyclo[1.1.1]pentane-1-carbonyl)amino]-N-[(1S)-3-(methylamino)-1-[[(3S,5R)-5-methyl-2-oxo-pyrrolidin-3-yl]methyl]-2,3-dioxo-propyl]pyridine-3-carboxamide]: the IC50 stood at 8.7 nM.

Consider `CNC(=O)C(=O)[C@H](C[C@@H]1CCNC1=O)NC(=O)c1cc(Cl)ccc1NC(=O)[C@H]1CC1(F)F` [Example 143, 5-chloro-2-[[(1R)-2,2-difluorocyclopropanecarbonyl]amino]-N-[(1S)-3-(methylamino)-2,3-dioxo-1-[[(3S)-2-oxopyrrolidin-3-yl]methyl]propyl]benzamide], for which the IC50 came to 3 nM.

As to `CCOC(=O)Nc1ccc(Cl)cc1C(=O)N[C@@H](C[C@@H]1CCNC1=O)C(=O)C(=O)NC1CC1` [Example 139], the IC50 turned out to be 6.3 nM.

Regarding `CNC(=O)C(=O)[C@H](C[C@@H]1C[C@@H](C)NC1=O)NC(=O)c1cc(Cl)ccc1NC(=O)C(C)c1ccc(C(F)(F)F)nc1` (single isomer, unassigned) [Example 229], the IC50 came to 33.5 nM.

For `C[C@@H]1C[C@@H](C[C@H](NC(=O)c2cc(Cl)c(F)cc2NC(=O)CCC(F)(F)F)C(=O)C(=O)NC2CC2)C(=O)N1` [Example 53, 5-chloro-N-[(1S)-3-(cyclopropylamino)-1-[[(3S,5R)-5-methyl-2-oxo-pyrrolidin-3-yl]methyl]-2,3-dioxo-propyl]-4-fluoro-2-(4,4,4-trifluorobutanoylamino) benzamide], the IC50 amounted to 8.3 nM.

For the molecule `CNC(=O)C(=O)[C@H](C[C@@H]1C[C@@H](C)NC1=O)NC(=O)c1cc(F)ccc1NC(=O)OC1CC1` [Example 121, cyclopropyl N-[4-fluoro-2-[[(1S)-3-(methylamino)-1-[[(3S,5R)-5-methyl-2-oxo-pyrrolidin-3-yl]methyl]-2,3-dioxo-propyl]carbamoyl]phenyl] carbamate], the IC50 worked out at 10.9 nM.

Consider `CNC(=O)C(=O)[C@H](C[C@@H]1C[C@@H](C)NC1=O)NC(=O)c1cc(OC(F)F)cnc1NC(=O)c1cccc(C(F)(F)F)c1` [Example 18, 5-(difluoromethoxy)-N-[(1S)-3-(methylamino)-1-[[(3S,5R)-5-methyl-2-oxo-pyrrolidin-3-yl]methyl]-2,3-dioxo-propyl]-2-[[3-(trifluoromethyl)benzoyl]amino]pyridine-3-carboxamide], for which the IC50 was 31.1 nM.

With `C[C@@H]1C[C@@H](C[C@H](NC(=O)c2cc(F)ccc2NC(=O)C2(C(F)(F)F)CC2)C(=O)C(=O)NC2CC2)C(=O)N1` [Example 25, N-[(1S)-3-(cyclopropylamino)-1-[[(3S,5R)-5-methyl-2-oxo-pyrrolidin-3-yl]methyl]-2,3-dioxo-propyl]-5-fluoro-2-[[1-(trifluoromethyl)cyclopropane-carbonyl]amino]benzamide], the IC50 amounted to 18.1 nM.

Turning to `C[C@@H]1C[C@@H](C[C@H](NC(=O)c2cc(Cl)cc(F)c2NC(=O)CCC(F)(F)F)C(=O)C(=O)NC2CC2)C(=O)N1` [Example 213, 5-chloro-N-[(1S)-3-(cyclopropylamino)-1-[[(3S,5R)-5-methyl-2-oxo-pyrrolidin-3-yl]methyl]-2,3-dioxo-propyl]-3-fluoro-2-(4,4,4-trifluorobutanoylamino) benzamide], the IC50 is 15.4 nM.

For `CC(OC(=O)Nc1ccc(Cl)cc1C(=O)N[C@@H](C[C@@H]1C[C@@H](C)NC1=O)C(=O)C(=O)NC1CC1)C(F)(F)F` (stereo partly drawn) [Example 211, (2,2,2-trifluoro-1-methyl-ethyl) N-[4-chloro-2-[[(1S)-3-(cyclopropylamino)-1-[[(3S,5R)-5-methyl-2-oxo-pyrrolidin-3-yl]methyl]-2,3-dioxo-propyl]carbamoyl]phenyl] carbamate], the IC50 stood at 7.3 nM.

Take `C[C@@H]1C[C@@H](C[C@H](NC(=O)c2cc(Cl)cnc2NC(=O)CCC(F)(F)F)C(=O)C(=O)NC2CC2)C(=O)N1` [Example 52, 5-chloro-N-[(1S)-3-(cyclopropylamino)-1-[[(3S,5R)-5-methyl-2-oxo-pyrrolidin-3-yl]methyl]-2,3-dioxo-propyl]-2-(4,4,4-trifluorobutanoylamino) pyridine-3-carboxamide]: the IC50 was 8.4 nM.

As for `CNC(=O)C(=O)[C@H](C[C@@H]1C[C@@H](C)NC1=O)NC(=O)c1cc(Cl)ccc1NC(=O)C(C)c1ccnc(C(F)(F)F)c1` (stereo partly drawn) [Example 228, 5-chloro-N-[(1S)-3-(methylamino)-1-[[(3S,5R)-5-methyl-2-oxo-pyrrolidin-3-yl]methyl]-2,3-dioxo-propyl]-2-[2-[2-(trifluoromethyl)-4-pyridyl]propanoylamino] benzamide], the IC50 came to 6.1 nM.

Regarding `CNC(=O)C(=O)[C@H](C[C@@H]1C[C@@H](C)NC1=O)NC(=O)c1cc(Cl)ccc1NC(=O)c1cnc(C(F)(F)F)nc1` [Example 215, N-[4-chloro-2-[[(1S)-3-(methylamino)-1-[[(3S,5R)-5-methyl-2-oxo-pyrrolidin-3-yl]methyl]-2,3-dioxo-propyl]carbamoyl]phenyl]-2-(trifluoromethyl)pyrimidine-5-carboxamide], the IC50 was determined as 10.1 nM.

Turning to `C[C@@H]1C[C@@H](C[C@H](NC(=O)c2cc(C#N)ccc2NC(=O)c2cccc(C(F)(F)F)c2)C(=O)C(=O)NC2CC2)C(=O)N1` [Example 61, 5-cyano-N-[(1S)-3-(cyclopropylamino)-1-[[(3S,5R)-5-methyl-2-oxo-pyrrolidin-3-yl]methyl]-2,3-dioxo-propyl]-2-[[3-(trifluoromethyl)benzoyl]amino]benzamide], the IC50 worked out at 7.7 nM.

For the molecule `CC(C)C(=O)Nc1ccc(Cl)cc1C(=O)N[C@@H](C[C@@H]1C[C@@H](C)NC1=O)C(=O)C(=O)NC1CC1` [Example 147, 5-chloro-N-[(1S)-3-(cyclopropylamino)-1-[[(3S,5R)-5-methyl-2-oxo-pyrrolidin-3-yl]methyl]-2,3-dioxo-propyl]-2-(2-methylpropanoylamino) benzamide], the IC50 turned out to be 11.6 nM.

Consider `CNC(=O)C(=O)[C@H](C[C@@H]1CCNC1=O)NC(=O)c1cc(Cl)ccc1NC(=O)C1CC1` [Example 110, 5-chloro-2-(cyclopropanecarbonylamino)-N-[(1S)-3-(methylamino)-2,3-dioxo-1-[[(3S)-2-oxopyrrolidin-3-yl]methyl]propyl]benzamide], for which the IC50 stood at 3.1 nM.

Regarding `CNC(=O)C(=O)[C@H](C[C@@H]1C[C@@H](C)NC1=O)NC(=O)c1cc(Cl)ccc1NC(=O)C1CCC(F)(F)C1` (single isomer, unassigned) [Example 65], the IC50 turned out to be 7.2 nM.

Consider `O=C(NC1CC1)C(=O)[C@H](C[C@@H]1CCNC1=O)NC(=O)c1cc(Cl)ccc1NC(=O)C12CC(F)(C1)C2` [Example 30, N-[4-chloro-2-[[(1S)-3-(cyclopropylamino)-2,3-dioxo-1-[[(3S)-2-oxopyrrolidin-3-yl]methyl]propyl]carbamoyl]phenyl]-3-fluoro-bicyclo[1.1.1]pentane-1-carboxamide], for which the IC50 is 12.9 nM.

Consider `C[C@@H]1C[C@@H](C[C@H](NC(=O)c2cc(Cl)ccc2NC(=O)c2ccnc(C(F)(F)F)c2)C(=O)C(=O)NC2CC2)C(=O)N1` [Example 2, N-(4-chloro-2-(((S)-4-(cyclopropylamino)-1-((3S,5R)-5-methyl-2-oxopyrrolidin-3-yl)-3,4-dioxobutan-2-yl)carbamoyl)phenyl)-2-(trifluoromethyl)isonicotinamide], for which the IC50 was found to be 5.6 nM.

Consider `C[C@@H]1C[C@@H](C[C@H](NC(=O)c2cc(OC(F)F)ccc2NC(=O)c2cccc(C(F)(F)F)c2)C(=O)C(=O)NC2CC2)C(=O)N1` [Example 20, N-[(1S)-3-(cyclopropylamino)-1-[[(3S,5R)-5-methyl-2-oxo-pyrrolidin-3-yl]methyl]-2,3-dioxo-propyl]-5-(difluoromethoxy)-2-[[3-(trifluoromethyl)benzoyl]amino]benzamide], for which the IC50 came to 26.4 nM.

Take `C[C@@H]1C[C@@H](C[C@H](NC(=O)c2cc(F)ccc2NC(=O)c2cccc(C(F)(F)F)c2)C(=O)C(=O)NC2CC2)C(=O)N1` [Example 78, N-[(1S)-3-(cyclopropylamino)-1-[[(3S,5R)-5-methyl-2-oxo-pyrrolidin-3-yl]methyl]-2,3-dioxo-propyl]-5-fluoro-2-[[3-(trifluoromethyl)benzoyl]amino]benzamide]: the IC50 came to 4.6 nM.
